Source: publication PMC10765884, “MC180295 is a highly potent and selective CDK9 inhibitor with preclinical in vitro and in vivo efficacy in cancer” (Clinical Epigenetics, 2024)
Like-named read-outs stand apart in the source and are kept apart here.

Experiments:
[1] = Pharmacokinetics in rats; assay type: in vivo; details: rat, plasma, iv, 1 mg/kg; for AUC(0-t): read-out: AUC24hr; for Vd: read-out: Vss
[2] = tested on: 46 cell lines representing 6 different malignancies; experiment: Growth inhibition in a panel of cancer cell lines; assay type: cell-based; details: 6 malignancies, read-out: median IC50
Procedure: The live-cell assay for GFP reactivation in YB5 cells was done as previously described. Cells were treated with a single dose of drug 24 h after seeding at low density, and GFP fluorescence measured in a Millipore Guava flow cytometer (EMD, Millipore) instrument, or by imaging in a Cytation instrument (Agilent). Cancer cell lines (listed in Additional file 1: Fig. S1A) were obtained from ATCC or the Temple/Fox Chase Cellular Repository and cultured in the recommended medium. To measure growth inhibition, cells were seeded in 96-well plates at 40% confluency. Fresh medium was changed the next day and drugs were added directly. Drug-free fresh medium was changed on the fourth day. The cells were collected on day 5 by trypsin, suspended in medium, mixed with trypan blue (Thermo Fisher Scientific) (1:1 ratio), and counted using a LUNA II automated cell counter. Each sample was counted at least three times, and average numbers used for the analysis. Each treatment condition was performed in biological triplicates.

[3] = tested on: CT26.CL25 cells; experiment: CT26.CL25 colon cancer model in B6 mice with/without CD8 depletion; assay type: in vivo; details: CT26.CL25 s.c. in B6 mice, MC180295 20 mg/kg i.p. q.o.d., DAC 0.5 mg/kg i.p. daily
Procedure: Fig. 5 Survival and antitumor effects of MC180295, DAC, or their combination, with/without CD8 + T cells. A 20 mg/kg MC180295 was administered (i.p.) q.o.d. 0.5 mg/kg DAC was administered (i.p.) daily. Mouse survival in days. B Survival of B6 mice, after CD8 depletion, using an anti-CD8 antibody. 20 mg/kg MC180295 was administered (i.p.) q.o.d. 0.5 mg/kg DAC was administered (i.p.) daily. C Antitumor effects of MC180295 with and without CD8 depletion, using an anti-CD8 antibody. B6 mice were inoculated (s.c.) with 5 × 10^5 CT26.CL25 cells. Eight days later, when tumors were palpable, 20 mg/kg MC180295 was administered (i.p.) q.o.d. 0.5 mg/kg DAC was administered (i.p.) daily. Tumor sizes were measured using a caliper and calculated over vehicle. D Antitumor effects of DAC, with and without CD8 depletion, using an anti-CD8 antibody. B6 mice were inoculated (s.c.) with 5 × 10^5 CT26.CL25 cells. Eight days later, when tumors were palpable, 20 mg/kg MC180295 was administered (i.p.) q.o.d. 0.5 mg/kg DAC was administered (i.p.) daily. Tumor sizes were measured using a caliper and calculated over vehicle. E Antitumor effects of DAC + MC180295, with and without CD8 depletion, using an anti-CD8 antibody. B6 mice were inoculated (s.c.) with 5 × 10^5 CT26.CL25 cells. Eight days later, when tumors were palpable, 20 mg/kg MC180295 was administered (i.p.) q.o.d. 0.5 mg/kg DAC was administered (i.p.) daily. Tumor sizes were measured using a caliper and calculated over vehicle. Significances were calculated using log-rank (Mantel-Cox) or Student's T tests. Data shown as means ± SEMs
For the s.c. SW48 model, 2 × 10^6 cells were injected into the flanks of randomly assigned, gender-matched 8–10-week-old NSG mice. 20 mg/kg MC180379, MC180380, or MC180295 was injected (i.p.), every other day, when the tumors were palpable, 11 days after engraftment, until endpoints were met. Mice were sacrificed before tumor volumes exceeded 400 mm^2 (endpoint for this model). For the s.c. HT29 model, 2 × 10^6 cells were injected into the flanks of randomly assigned, gender-matched, 8–10-week-old NSG mice. […]

[4] = Drug toxicity: body weights and complete blood counts in tumor-bearing mice; assay type: in vivo; details: MV4-11 model, NSG mice, Fig. S4D
[5] = biological target: T1, CDK9/cyclin T2 (Homo sapiens, UniProt P50750); experiment: CDK enzymatic assay; assay type: biochemical; details: Fig. 1A
T1 construct: purchased Reaction Biology Corp
T1 sequence (P50750 whole entry): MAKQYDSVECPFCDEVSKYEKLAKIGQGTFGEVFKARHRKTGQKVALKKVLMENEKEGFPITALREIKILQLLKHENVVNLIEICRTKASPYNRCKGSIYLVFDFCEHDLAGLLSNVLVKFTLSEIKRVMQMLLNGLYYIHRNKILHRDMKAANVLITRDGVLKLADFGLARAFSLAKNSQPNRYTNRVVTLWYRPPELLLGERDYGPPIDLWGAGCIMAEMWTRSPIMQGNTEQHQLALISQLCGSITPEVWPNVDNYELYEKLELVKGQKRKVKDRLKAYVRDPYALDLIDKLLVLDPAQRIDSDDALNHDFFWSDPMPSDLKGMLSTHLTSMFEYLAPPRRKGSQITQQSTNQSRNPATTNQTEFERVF
T1 sequence (O60583 whole entry partner): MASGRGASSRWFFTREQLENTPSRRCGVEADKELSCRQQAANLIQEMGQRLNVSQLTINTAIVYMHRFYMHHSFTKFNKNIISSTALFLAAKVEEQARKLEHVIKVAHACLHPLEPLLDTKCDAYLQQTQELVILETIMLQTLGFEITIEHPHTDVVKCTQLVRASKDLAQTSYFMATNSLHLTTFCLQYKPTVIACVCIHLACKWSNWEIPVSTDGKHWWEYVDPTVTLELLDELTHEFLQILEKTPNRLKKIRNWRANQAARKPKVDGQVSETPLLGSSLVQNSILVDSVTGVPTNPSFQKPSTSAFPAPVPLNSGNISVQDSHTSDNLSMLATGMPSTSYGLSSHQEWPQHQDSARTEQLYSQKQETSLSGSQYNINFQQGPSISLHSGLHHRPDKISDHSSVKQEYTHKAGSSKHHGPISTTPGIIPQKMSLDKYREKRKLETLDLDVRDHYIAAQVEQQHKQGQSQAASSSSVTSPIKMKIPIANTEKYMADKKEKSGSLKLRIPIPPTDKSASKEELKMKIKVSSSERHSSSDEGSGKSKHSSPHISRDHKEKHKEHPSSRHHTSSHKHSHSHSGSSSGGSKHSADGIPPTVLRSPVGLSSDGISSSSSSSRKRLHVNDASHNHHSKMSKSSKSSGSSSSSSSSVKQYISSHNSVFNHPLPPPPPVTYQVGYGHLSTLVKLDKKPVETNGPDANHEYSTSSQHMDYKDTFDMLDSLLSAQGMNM
Procedure: (§1) CDK enzymatic assays were performed by Reaction Biology Corp. (Malvern, PA), using 10 µM ATP for determining MC180295 IC50 values for each CDK family member for which assays were available. Kinase enzymatic assays were also performed by Nanosyn (Santa Clara, CA), using microfluidic technology and MC180295 IC50 curves against 10 CDKs. Selectivity against CDK9 was confirmed for the enantiomers at Reaction Biology Corp. (Malvern, PA).

[6] = biological target: T2, CDK9/cyclin K (Homo sapiens, UniProt P50750); experiment: CDK enzymatic assay; assay type: biochemical; details: Fig. 1A
T2 construct: purchased Reaction Biology Corp
T2 sequence (P50750 whole entry): as the sequence (P50750 whole entry) above
T2 sequence (O75909 whole entry partner): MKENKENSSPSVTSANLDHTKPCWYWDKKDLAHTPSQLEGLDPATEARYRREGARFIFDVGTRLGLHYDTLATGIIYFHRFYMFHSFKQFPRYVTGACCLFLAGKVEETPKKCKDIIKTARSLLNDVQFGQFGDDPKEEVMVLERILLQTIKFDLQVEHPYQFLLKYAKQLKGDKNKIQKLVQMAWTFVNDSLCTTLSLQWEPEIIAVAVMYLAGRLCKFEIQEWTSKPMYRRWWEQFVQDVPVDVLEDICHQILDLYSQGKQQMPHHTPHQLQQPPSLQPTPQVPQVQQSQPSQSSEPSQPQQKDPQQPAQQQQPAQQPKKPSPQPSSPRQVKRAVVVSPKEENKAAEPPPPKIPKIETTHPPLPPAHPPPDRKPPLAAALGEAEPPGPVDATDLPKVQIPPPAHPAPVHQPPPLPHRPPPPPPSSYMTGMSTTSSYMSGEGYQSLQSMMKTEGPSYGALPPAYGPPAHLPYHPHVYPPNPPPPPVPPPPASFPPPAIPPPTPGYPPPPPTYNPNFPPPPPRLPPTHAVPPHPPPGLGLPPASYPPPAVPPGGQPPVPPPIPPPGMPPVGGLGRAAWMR
Procedure: as §1

[7] = biological target: CDK9/cyclin T1 (Homo sapiens, UniProt P50750); experiment: CDK enzymatic assay; assay type: biochemical; details: Fig. 1A
Chain of CDK9/cyclin T1 (P50750 whole entry): as the sequence (P50750 whole entry) above
Chain of CDK9/cyclin T1 (O60563 whole entry partner): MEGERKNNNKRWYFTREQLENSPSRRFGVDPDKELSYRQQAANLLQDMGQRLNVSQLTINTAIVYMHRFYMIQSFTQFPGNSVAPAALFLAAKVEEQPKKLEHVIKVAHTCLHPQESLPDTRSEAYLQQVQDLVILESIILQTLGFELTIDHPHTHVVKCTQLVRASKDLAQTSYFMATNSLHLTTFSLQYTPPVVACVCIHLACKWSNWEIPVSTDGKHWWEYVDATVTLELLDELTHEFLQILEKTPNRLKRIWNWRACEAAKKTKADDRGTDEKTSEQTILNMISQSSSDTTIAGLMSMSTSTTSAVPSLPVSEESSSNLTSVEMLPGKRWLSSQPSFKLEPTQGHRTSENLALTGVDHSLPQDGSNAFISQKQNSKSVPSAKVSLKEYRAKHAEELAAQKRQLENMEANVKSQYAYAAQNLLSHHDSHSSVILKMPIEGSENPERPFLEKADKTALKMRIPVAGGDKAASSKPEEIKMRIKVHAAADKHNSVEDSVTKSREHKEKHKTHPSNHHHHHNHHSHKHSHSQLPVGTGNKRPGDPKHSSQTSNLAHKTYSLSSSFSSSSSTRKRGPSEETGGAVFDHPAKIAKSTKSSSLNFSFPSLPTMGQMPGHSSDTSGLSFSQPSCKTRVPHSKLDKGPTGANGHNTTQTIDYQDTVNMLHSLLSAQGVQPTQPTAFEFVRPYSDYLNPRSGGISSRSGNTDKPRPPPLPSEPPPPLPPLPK
Procedure: as §1

[8] = biological target: T3, CDK16/cyclin Y (PCTAIRE) (Homo sapiens, UniProt Q00536); experiment: CDK enzymatic assay; assay type: biochemical; details: Fig. 1A
T3 construct: purchased Reaction Biology Corp
T3 sequence (Q00536 whole entry): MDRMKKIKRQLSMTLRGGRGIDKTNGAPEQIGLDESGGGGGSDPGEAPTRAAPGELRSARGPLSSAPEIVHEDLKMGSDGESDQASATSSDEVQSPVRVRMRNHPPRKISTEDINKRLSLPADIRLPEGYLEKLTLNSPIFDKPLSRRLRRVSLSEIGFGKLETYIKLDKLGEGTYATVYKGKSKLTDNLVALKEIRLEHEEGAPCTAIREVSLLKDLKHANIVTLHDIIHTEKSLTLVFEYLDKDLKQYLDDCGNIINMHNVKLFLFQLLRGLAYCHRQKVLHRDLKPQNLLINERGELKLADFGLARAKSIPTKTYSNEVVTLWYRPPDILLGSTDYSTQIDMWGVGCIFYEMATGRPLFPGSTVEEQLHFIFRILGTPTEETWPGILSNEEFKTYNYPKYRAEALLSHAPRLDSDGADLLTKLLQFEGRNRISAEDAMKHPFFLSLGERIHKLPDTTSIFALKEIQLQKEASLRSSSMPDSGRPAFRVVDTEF
T3 sequence (Q8ND76 whole entry partner): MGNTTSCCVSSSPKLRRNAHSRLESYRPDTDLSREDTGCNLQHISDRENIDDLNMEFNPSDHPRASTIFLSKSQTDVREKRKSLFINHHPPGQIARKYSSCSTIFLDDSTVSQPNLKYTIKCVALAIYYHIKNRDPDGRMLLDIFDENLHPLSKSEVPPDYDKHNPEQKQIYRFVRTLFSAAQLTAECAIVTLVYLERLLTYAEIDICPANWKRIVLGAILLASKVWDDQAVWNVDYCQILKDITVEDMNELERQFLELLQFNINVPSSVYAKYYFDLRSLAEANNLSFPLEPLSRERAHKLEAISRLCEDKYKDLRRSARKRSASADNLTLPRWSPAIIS
Procedure: as §1

Work on Nc1nc(N[C@H]2C[C@@H]3CC[C@H]2C3)sc1C(=O)c1ccccc1[N+](=O)[O-] (relative stereo) [MC180295] yielded a half-life ([1]; given IV to rats, read-out: half-life (converted)) of about 14 h, a Cmax ([1]; rats, IV 1 mg/kg, Mean) of 635 ng/mL and a clearance ([1]; rats, IV 1 mg/kg, Mean) of 5.2 mL/min. It also gave an AUC(0-t) ([1]; rats, IV 1 mg/kg, Mean) of 679 ng·h/mL, a half-life ([1]; rats, IV 1 mg/kg, Mean, read-out: T1/2 (converted)) of 14 h and a Vd ([1]; rats, IV 1 mg/kg, Mean) of 4.46 L. The Cmax ([1]; rats, IV 1 mg/kg, Rat -1) was 385 ng/mL, the clearance ([1]; rats, IV 1 mg/kg, Rat -1) was 6.4 mL/min and the AUC(0-t) ([1]; rats, IV 1 mg/kg, Rat -1) was 470 ng·h/mL. The half-life ([1]; rats, IV 1 mg/kg, Rat -1, read-out: T1/2 (converted)) was 17.9 h, the Vd ([1]; rats, IV 1 mg/kg, Rat -1) was 6.87 L and the Cmax ([1]; rats, IV 1 mg/kg, Rat -2) was 568 ng/mL. It also gave a clearance ([1]; rats, IV 1 mg/kg, Rat -2) of 5.1 mL/min, an AUC(0-t) ([1]; rats, IV 1 mg/kg, Rat -2) of 687 ng·h/mL and a half-life ([1]; rats, IV 1 mg/kg, Rat -2, read-out: T1/2 (converted)) of 9.98 h. For the same molecule, the Vd ([1]; rats, IV 1 mg/kg, Rat -2) was 3.74 L, the Cmax ([1]; rats, IV 1 mg/kg, Rat -3) was 951 ng/mL and the clearance ([1]; rats, IV 1 mg/kg, Rat -3) was 4.1 mL/min. It also gave an AUC(0-t) ([1]; rats, IV 1 mg/kg, Rat -3) of 879 ng·h/mL, a half-life ([1]; rats, IV 1 mg/kg, Rat -3, read-out: T1/2 (converted)) of 14 h and a Vd ([1]; rats, IV 1 mg/kg, Rat -3) of 2.76 L. The IC50 [2] was 171 nM, the survival [3] was “extended survival” and the tumor size [3] was “significantly decreased tumor size”. The body weights [4] was “did not affect NSG mouse body weights”, the IC50 [5] was 3 nM and the IC50 [6] was 49 nM. For the same molecule, the IC50 [7] was 12 nM and the IC50 [8] was 1180 nM.
